Measurements from patent publication US11236095B2 (priority 2007, dated 2022).

Assay: Human dose prediction (human PK parameter estimation)
Conditions: plasma, read-out: half-life, estimated (human) (converted)

half-life: ~6 h
Structure (SMILES): NC1(C(=O)N[C@@H](CCO)c2ccc(Cl)cc2)CCN(c2ncnc3[nH]ccc23)CC1 [Example 9, (S)-4-amino-N-(1-(4-chlorophenyl)-3-hydroxypropyl)-1-(7H-pyrrolo[2,3-d]pyrimidin-4-yl)piperidine-4-carboxamide]
